Source: patent US20220162240A1, “MITOCHONDRIA-TARGETED ISOKETAL/ISOLEVUGLANDIN SCAVENGERS” (Vanderbilt University, priority 2019, published 2022)
Entries after “also recorded” stand apart in the source; their conditions may differ.

Assays:
[1] = tested on: human aortic endothelial cells (HAEC); assay: Cardiolipin oxidation in HAEC incubated with Ang II plus TNFα (LC/MS); type: cell-based; conditions: 50 nM, Ang II + TNFα 24 hours
Description: (§1) Free radical oxidation of arachidonic acid produces highly reactive isolevuglandins (isoLG) which causes mitochondrial dysfunction by opening of the mitochondrial permeability transition pore (mPTP). […] The functional role of mitochondrial isoLG was tested in vivo using angiotensin II model of hypertension. C57Bl/6J mice were infused with angiotensin II (0.7 mg/kg/day) or saline (Sham) and received mito2HOBA in the drinking water (0.1 g/L). […] Decrease of NO is a hallmark of endothelial dysfunction in hypertension due to vascular oxidative stress.
(§2) Mitochondrial O2^• and cardiolipin oxidation (specific marker of mitochondrial dysfunction and oxidative stress) in cultured human aortic endothelial cells (HAEC) were incubated with Ang II and TNFα.

hypertension = conditions: background statement; cited from earlier work
[2] = tested on: human aortic endothelial cells (HAEC); assay: Mitochondrial superoxide in HAEC incubated with Ang II plus TNFα (MitoSOX/HPLC); type: cell-based
Description: as §1, §2

aorta = assay: Vasodilatation of aorta from Ang II-infused mice treated with CypD blocker; type: in vivo; conditions: i.p. 10 mg/kg/day after onset of Ang II-induced hypertension
Description: (§3) FIG. 3A-3D is a set of graphs showing examples of targeting CypD in hypertension. Blood pressure in C57Bl/6J mice infused with saline (Sham), Ang II (0.7 mg/kg/day) or treated with CypD blocker Sanglifehrin A (SFA) after onset of Ang II-induced hypertension (Ang II+SFA). Blood pressure was measured by tail-cuff method (A). ^3Following 14 days of saline or Ang II infusion, mice were sacrificed for isolation of aorta to study mitochondrial […] using MitoSOX and HPLC or to study vasodilation. Results are mean±SEM (n=6-8). *P<0.01 vs Sham, **P<0.01 vs Ang II, ***P<0.01 vs Ang II+SFA (n=8).
(§4) One aspect of the present invention is targeting CypD after onset of hypertension. The present inventors implanted wild-type mice with osmotic pump containing Ang II (0.7 mg/kg/day) and started treatment with Sanglifehrin A after onset of Ang II-induced hypertension (FIG. 3A).

[3] = tested on: Ang II-infused C57Bl/6J mice; assay: Blood pressure (tail-cuff) in Ang II-induced hypertension, CypD blocker given after onset; type: in vivo; conditions: i.p. 10 mg/kg/day after onset of Ang II-induced hypertension
Description: as §3, §4

mitochondrial superoxide = assay: Aortic mitochondrial superoxide (MitoSOX/HPLC) in Ang II-infused mice treated with CypD blocker; type: in vivo; conditions: i.p. 10 mg/kg/day after onset of Ang II-induced hypertension
Description: as §3, §4

[4] = tested on: intact mouse kidney mitochondria; assay: Swelling and respiration of isolated mouse kidney mitochondria after acute isoLG or isoLG-PE exposure; conditions: for mPTP opening / mitochondrial swelling / inhibition of mitochondrial respiration: 1 μM; for inhibition of mitochondrial respiration: acute treatment of isolated mitochondria, 5 min, glutamate and malate, ADP 50 μM
Description: Intact mouse kidney mitochondria with glutamate and malate were incubated (5 min) with ethanol as vehicle, isoLG (1 μM) or isoLG-PE (1 μM) prior to addition of ADP (50 μM) and measurements of oxygen consumption. *P<0.001 vs Control, **P<0.03 vs isoLG.
Reactive isoLG produce protein-Lysine adducts and cytotoxic isoLG-phosphatidylethanolamine adduct (isoLG-PE) which can independently contribute to mitochondrial dysfunction. Indeed, acute treatment of isolated mitochondria with isoLG-PE inhibited respiration by 41% while similar dose of isoLG reduced respiration by 74% which support potential role of both isoLG-PE and isoLG protein-Lysine adducts in mitochondrial dysfunction.

[5] = acute exposure of isolated mitochondria

For `NCc1ccccc1O` [2HOBA, 2-hydroxybenzylamine, reference compound], the cardiolipin oxidation [1] is listed as “not effective”, the “endothelium-dependent relaxation in animal studies” value (hypertension) is listed as “protects endothelium-dependent relaxation” and the “hypertension in animal studies” value (hypertension) is listed as “attenuates hypertension”. For the same molecule, the “inflammation in animal studies” value (hypertension) was “prevents inflammation”, the “mitochondrial superoxide production / mitochondrial oxidative stress” value ([2]; 50 nM, Ang II + TNFα 24 hours, MitoSOX/HPLC) was “not effective” and the “concentration required for protection similar to mito2HOBA (50 nM) against mitochondrial oxidative stress” value ([2]; Ang II + TNFα) was “much higher concentrations”.

With `CC[C@H]1C[C@H](C)[C@@]2(NC1=O)O[C@@H](C[C@H](O)[C@@H](C)CC/C=C/C=C(\C)[C@@H]1C/C=C/C=C/[C@H](O)[C@H](C)[C@@H](O)[C@@H](CCC(C)=O)C(=O)N[C@@H](C(C)C)C(=O)N[C@@H](Cc3cccc(O)c3)C(=O)N3CCC[C@H](N3)C(=O)O1)[C@H](C)[C@H](O)[C@@H]2C` [Sanglifehrin A] the vasodilatation (aorta) was “improves vasodilatation”, the blood pressure [3] was “reduces blood pressure” and the “mitochondrial superoxide production in aorta” value (mitochondrial superoxide) was “normalizes”.

With “isoLG-phosphatidylethanolamine adduct [isoLG-PE]” the “mPTP opening / mitochondrial swelling” value [4, 5] was “mitochondrial swelling” and the “inhibition of mitochondrial respiration” value [4] was 41%.

With isolevuglandins [isoLG] the “mitochondrial respiration” value [4, 5] was “inhibits mitochondrial respiration”, the “mPTP opening / mitochondrial swelling” value [4, 5] was “induces CypD-dependent mPTP opening; also recorded: mitochondrial swelling” and the “inhibition of mitochondrial respiration” value [4] was 74%.
